Source: patent US10017403B2, “Use of peracetic acid/hydrogen peroxide and peroxide-reducing enzymes for treatment of drilling fluids, frac fluids, flowback water and disposal water” (ECOLAB USA INC., priority 2012, dated 2018)

Tests used:
[1] = Catalase amount needed in POAA treated water, iodometric titration (Example 15); assay type: biochemical
Experimental: Field of use applications were analyzed to determine the amount of a peroxide-reducing enzyme necessary to obtain desired concentrations of both peracid and hydrogen peroxide in a treated water source. EnviroSan (POAA) peracid composition was added to water to reach the targeted POAA concentrations set forth in Table 18, and the concentration of both POAA and H2O2 were confirmed by iodometric titration. Then catalase (ES2000) was added to the solution, and the sample was stored under ambient conditions. The concentration of POAA and H2O2 were monitored by the iodometric conditions.

fracking water mixtures [2] = assay: Micro efficacy in fracking water mixtures, baseline without catalase (Example 3); assay type: cell-based
Experimental: The impact of water pretreatment with 500 ppm of the EnviroSan product (75 ppm POAA) on micro efficacy in various fracking water mixtures were evaluated. The example represents a baseline data set of various water treatment options according to the invention. Table 2 and FIG. 3 show the average log reduction in various slick water treatments with varying ppm PAA (without any catalase treatment or pretreatment), representing a baseline data set.

[3] = Titration of POAA consumption in water mixtures (Example 6); assay type: physicochemical
[4] = tested on: Pseudomonas aeruginosa ATCC 15442; assay: Micro efficacy at 30 ppm POAA with or without catalase, with or without water pretreatment (Example 7); assay type: cell-based; conditions: no holding tank pretreatment, 30 ppm PAA
Experimental: All water mixtures were treated with an initial concentration of 30 ppm POAA EnviroSan, both with and without the addition of catalase. The data set evaluates whether there is a significant difference in micro activity generated between treatments of EnviroSan alone vs. EnviroSan pre-reduced with catalase.
All ratios of fracking water mixtures tested (100/0, 90/10, 80/20 & 70/30) were freshly mixed solutions, as well as solutions mixed and pretreated with 500 ppm EnviroSan product more than 1 hour before the start of the micro evaluation, in order to observe if a pretreatment step is of value for micro performance compared to those mixtures not pretreated. The test system (P. aeruginosa and natural water) described in Example 5 was again utilized. Water mixtures as outlined in Table 9 were provided (showing the percentage of 100 mL of each water sample type).
The testing methods of Example 5 were utilized for the chemically treated water samples, differing only in the combination of the 10 mL inoculated water mixtures with appropriate volumes of the EnviroSan with or without catalase to achieve 30 ppm POAA residual to each test tube in timed intervals and mixed. The methods of Example 5 were employed to make the EnviroSan with catalase stock solutions. In comparison, for the water samples that were not chemically treated, 9.9 mL of test water mixture was dispensed into 2 individual test tubes. 0.10 mL of an approximate 10^8 CFU/mL culture of P. aeruginosa was added in timed intervals and mixed thoroughly. Then 1 mL samples were neutralized in 9 mL of 0.5% sodium thiosulfate, followed by serial dilution and enumeration after 2.5 minutes, 5 minutes and 60 minute exposure times.
Table 11C show the use of 30 ppm POAA with/without catalase treatment compared for micro performance at both 2.5 and 5.0 minutes exposure times. Upon addition of 10-30% reuse water a defined drop in antimicrobial performance was observed over both 2.5 and 5 minutes as peracid was rapidly consumed if not pretreated with catalase. A residual of 30 ppm POAA at 5 minutes was needed to achieve the desired antimicrobial performance.

fracking water mixtures [5] = assay: Micro efficacy: POAA dosed for 30 ppm residual versus POAA pretreated with catalase (Example 8); assay type: cell-based; conditions: no holding tank treatment
Experimental: A micro efficacy comparison of POAA added at levels to target 30 ppm POAA residuals at 5 minutes versus POAA pretreated with catalase was conducted as set forth in Table 12.

[6] = catalase 0.5 ppm, time 0 hr, series starting 14.6 ppm POAA, EnviroSan in water, ambient
[7] = catalase 0.5 ppm, time 0 hr, series starting 31.1 ppm POAA
[8] = catalase 0.5 ppm, time 1 hr, series starting 14.6 ppm POAA
[9] = catalase 0.5 ppm, time 1 hr, series starting 31.1 ppm POAA
[10] = catalase 0.5 ppm, time 2 hr, series starting 14.6 ppm POAA
[11] = catalase 0.5 ppm, time 2 hr, series starting 31.1 ppm POAA
[12] = catalase 0.5 ppm, time 3.6 hr, series starting 14.6 ppm POAA
[13] = catalase 0.5 ppm, time 3.6 hr, series starting 31.1 ppm POAA
[14] = catalase 1.0 ppm, time 0 hr, series starting 14.8 ppm POAA
[15] = catalase 1.0 ppm, time 0 hr, series starting 30.1 ppm POAA
[16] = catalase 1.0 ppm, time 1 hr, series starting 14.8 ppm POAA
[17] = catalase 1.0 ppm, time 1 hr, series starting 30.1 ppm POAA
[18] = catalase 1.0 ppm, time 2 hr, series starting 14.8 ppm POAA
[19] = catalase 1.0 ppm, time 2 hr, series starting 30.1 ppm POAA
[20] = catalase 1.0 ppm, time 3.6 hr, series starting 14.8 ppm POAA
[21] = catalase 1.0 ppm, time 3.6 hr, series starting 30.1 ppm POAA

Compound: catalase
- catalase concentration sufficient for treating the water source ([1]; ambient conditions): ~1 ppm
- H2O2 (ppm) [1, 6]: 12.0 ppm
- POAA (ppm) [1, 6]: 14.6 ppm
- H2O2 (ppm) [1, 7]: 22.8 ppm
- POAA (ppm) [1, 7]: 31.1 ppm
- H2O2 (ppm) [1, 8]: 7.5 ppm
- POAA (ppm) [1, 8]: 15.0 ppm
- H2O2 (ppm) [1, 9]: 12.2 ppm
- POAA (ppm) [1, 9]: 32.0 ppm
- H2O2 (ppm) [1, 10]: 6.5 ppm
- POAA (ppm) [1, 10]: 14.3 ppm
- H2O2 (ppm) [1, 11]: 7.8 ppm
- POAA (ppm) [1, 11]: 29.2 ppm
- H2O2 (ppm) [1, 12]: 1.8 ppm
- POAA (ppm) [1, 12]: 14.2 ppm
- H2O2 (ppm) [1, 13]: 3.4 ppm
- POAA (ppm) [1, 13]: 30.6 ppm
- H2O2 (ppm) [1, 14]: 12.6 ppm
- POAA (ppm) [1, 14]: 14.8 ppm
- H2O2 (ppm) [1, 15]: 23.3 ppm
- POAA (ppm) [1, 15]: 30.1 ppm
- H2O2 (ppm) [1, 16]: 3.7 ppm
- POAA (ppm) [1, 16]: 14.6 ppm
- H2O2 (ppm) [1, 17]: 7.6 ppm
- POAA (ppm) [1, 17]: 31.0 ppm
- H2O2 (ppm) [1, 18]: 1.1 ppm
- POAA (ppm) [1, 18]: 14.2 ppm
- H2O2 (ppm) [1, 19]: 2.3 ppm
- POAA (ppm) [1, 19]: 29.6 ppm
- H2O2 (ppm) [1, 20]: 0.4 ppm
- POAA (ppm) [1, 20]: 15.9 ppm
- H2O2 (ppm) [1, 21]: 0.0 ppm
- POAA (ppm) [1, 21]: 29.3 ppm
- selectivity of catalase for H2O2 over POAA ([1]; tested ambient conditions): selectively decomposes the H2O2 without having any negative impact on POAA stability
- lowest catalase concentration with which pond water with POAA and H2O2 could be treated ([1]; within 4 hours, ambient conditions): 0.5 ppm

Compound: CC(=O)OO [POAA, peracetic acid]
- Avg. Log10 Reduction (fracking water mixtures [2]; 75 ppm PAA holding tank pretreatment, 10% reuse H2O, 29 ppm POAA, no catalase, 2.5 minutes): 6.45 Log10
- Avg. Log10 Reduction (fracking water mixtures [2]; 75 ppm PAA holding tank pretreatment, 10% reuse H2O, 29 ppm POAA, no catalase, 5 minutes): 6.71 Log10
- Avg. Log10 Reduction (fracking water mixtures [2]; 75 ppm PAA holding tank pretreatment, 20% reuse H2O, 47 ppm PAA, no catalase, 2.5 minutes): 6.42 Log10
- Avg. Log10 Reduction (fracking water mixtures [2]; 75 ppm PAA holding tank pretreatment, 20% reuse H2O, 47 ppm PAA, no catalase, 5 minutes): 6.55 Log10
- Avg. Log10 Reduction (fracking water mixtures [2]; 75 ppm PAA holding tank pretreatment, 30% reuse H2O, 86 ppm POAA, no catalase, 2.5 minutes): 6.47 Log10
- Avg. Log10 Reduction (fracking water mixtures [2]; 75 ppm PAA holding tank pretreatment, 30% reuse H2O, 86 ppm POAA, no catalase, 5 minutes): 6.41 Log10
- Avg. Log10 Reduction (fracking water mixtures [2]; no holding tank pretreatment, 0% reuse H2O, 22 ppm POAA, 2.5 minutes): 5.53 Log10
- Avg. Log10 Reduction (fracking water mixtures [2]; no holding tank pretreatment, 0% reuse H2O, 22 ppm POAA, 5 minutes): 5.75 Log10
- Avg. Log10 Reduction (fracking water mixtures [2]; no holding tank pretreatment, 10% reuse H2O, 36 ppm POAA, 2.5 minutes): 4.32 Log10
- Avg. Log10 Reduction (fracking water mixtures [2]; no holding tank pretreatment, 10% reuse H2O, 36 ppm POAA, 5 minutes): 4.72 Log10
- Avg. Log10 Reduction (fracking water mixtures [2]; no holding tank pretreatment, 20% reuse H2O, 86 ppm POAA, 2.5 minutes): 4.57 Log10
- Avg. Log10 Reduction (fracking water mixtures [2]; no holding tank pretreatment, 20% reuse H2O, 86 ppm POAA, 5 minutes): 4.64 Log10
- Avg. Log10 Reduction (fracking water mixtures [2]; no holding tank pretreatment, 30% reuse H2O, 138 ppm POAA, 2.5 minutes): 4.12 Log10
- Avg. Log10 Reduction (fracking water mixtures [2]; no holding tank pretreatment, 30% reuse H2O, 138 ppm POAA, 5 minutes): 5.00 Log10
- Actual Titrated Concentration (ppm POAA) ([3]; 70% Fresh/30% Produced, desired 30 ppm POAA, 1 minutes): 7 ppm
- Actual Titrated Concentration (ppm POAA) ([3]; 70% Fresh/30% Produced, desired 30 ppm POAA, 5 minutes): 0 ppm
- Actual Titrated Concentration (ppm POAA) ([3]; 70% Fresh/30% Produced, desired 40 ppm POAA, 1 minutes): 12 ppm
- Actual Titrated Concentration (ppm POAA) ([3]; 70% Fresh/30% Produced, desired 40 ppm POAA, 5 minutes): 0 ppm
- Actual Titrated Concentration (ppm POAA) ([3]; 80% Fresh/20% Produced, desired 30 ppm POAA, 1 minutes): 13 ppm
- Actual Titrated Concentration (ppm POAA) ([3]; 80% Fresh/20% Produced, desired 30 ppm POAA, 5 minutes): 0 ppm
- Actual Titrated Concentration (ppm POAA) ([3]; 80% Fresh/20% Produced, desired 40 ppm POAA, 1 minutes): 21 ppm
- Actual Titrated Concentration (ppm POAA) ([3]; 80% Fresh/20% Produced, desired 40 ppm POAA, 5 minutes): 2 ppm
- Actual Titrated Concentration (ppm POAA) ([3]; 90% Fresh/10% Produced, desired 30 ppm POAA, 1 minutes): 21 ppm
- Actual Titrated Concentration (ppm POAA) ([3]; 90% Fresh/10% Produced, desired 30 ppm POAA, 5 minutes): 8 ppm
- Actual Titrated Concentration (ppm POAA) ([3]; 90% Fresh/10% Produced, desired 40 ppm POAA, 1 minutes): 30 ppm
- Actual Titrated Concentration (ppm POAA) ([3]; 90% Fresh/10% Produced, desired 40 ppm POAA, 5 minutes): 16 ppm
- Avg. Log10 Reduction ([4]; 0% reuse H2O, 2.5 minutes): 4.64 Log10
- Avg. Log10 Reduction ([4]; 0% reuse H2O, 5 minutes): 6.32 Log10
- Avg. Log10 Reduction ([4]; 10% reuse H2O, 2.5 minutes): 3.09 Log10
- Avg. Log10 Reduction ([4]; 10% reuse H2O, 5 minutes): 3.91 Log10
- Avg. Log10 Reduction ([4]; 20% reuse H2O, 2.5 minutes): 2.19 Log10
- Avg. Log10 Reduction ([4]; 20% reuse H2O, 5 minutes): 2.38 Log10
- Avg. Log10 Reduction ([4]; 30% reuse H2O, 2.5 minutes): 1.88 Log10
- Avg. Log10 Reduction ([4]; 30% reuse H2O, 5 minutes): 1.93 Log10
- Avg. Log10 Reduction (fracking water mixtures [5]; 10% reuse H2O, 46 ppm PAA, 2.5 minutes): 4.32 Log10
- Avg. Log10 Reduction (fracking water mixtures [5]; 10% reuse H2O, 46 ppm PAA, 5 minutes): 4.72 Log10
- Avg. Log10 Reduction (fracking water mixtures [5]; 20% reuse H2O, 86 ppm PAA, 2.5 minutes): 4.57 Log10
- Avg. Log10 Reduction (fracking water mixtures [5]; 20% reuse H2O, 86 ppm PAA, 5 minutes): 4.64 Log10
- Avg. Log10 Reduction (fracking water mixtures [5]; 30% reuse H2O, 138 ppm PAA, 2.5 minutes): 4.12 Log10
- Avg. Log10 Reduction (fracking water mixtures [5]; 30% reuse H2O, 138 ppm PAA, 5 minutes): 5.00 Log10
